Assay [1] has as its system Leptosphaeria nodorum—LEPTNO. The assay is described as follows: Glume Blotch of Wheat, in vivo whole plant, 24 Hour Protectant. The settings on record: Leptosphaeria, 24 h, inoculated after 24 hours, read-out: LEPTNO in vivo 1 Day Protectant.
Assay [2] relates to Rhizoctonia solani (RHIZSO). Nature of the assay: microbe, parasite or virus in culture. In kind it is cell-based.
The subject of another assay is Ustilago maydis (USTIMA). Nature of the assay: microbe, parasite or virus in culture. In kind it is cell-based.
Where [3] appears, read: wheat (cultivar Yuma), sprayed at 100 ppm, control of fungal infection vs untreated plants.
Where [4] appears, read: wheat plants sprayed at 100 ppm, control vs untreated plants.

Read-outs that look alike come from different tables or passages of the source.

For `COc1ccnc(C(=O)N[C@H]2COC(=O)[C@H](Cc3ccccc3)[C@@H](OC(=O)C3CC3)[C@H](C)OC2=O)c1O` [Compound 387], the pest or weed control at 100 ppm in assay [1] (setting [3]) lay in the range of 75 to 100%.

In the case of `COc1ccnc(C(=O)Nc2ccc(OCc3ccc(C(F)(F)F)cc3)cc2)c1O` [Compound 448], the pest or weed control at 100 ppm in assay [1] (setting [3]) is 75 to 100%.

For `COc1ccnc(C(=O)N[C@H]2COC(=O)[C@H](Cc3ccccc3)[C@@H](OC(=O)NC(C)(C)C)[C@H](C)OC2=O)c1O` [Compound 400], in assay [1] (setting [3]), the pest or weed control at 100 ppm was in the range of 75 to 100%.

As for `COc1ccnc(C(=O)N[C@H]2COC(=O)[C@H](Cc3ccccc3)[C@@H](OC(=O)C3CCCC3)[C@H](C)OC2=O)c1O` [Compound 391], the pest or weed control at 100 ppm in assay [1] (setting [3]) fell in the range of 75 to 100%.

Turning to `CO/N=C(/c1ccc(NC(=O)c2nccc(OC)c2O)cc1)c1ccc(C(F)(F)F)cc1` [Compound 409], the pest or weed control at 100 ppm in assay [1] (setting [3]) was in the range of 75 to 100%. Regarding `COc1ccnc(C(=O)Nc2ccc(OC3CC(C)(C)OC(C)(C)C3)cc2)c1O` [Compound 459], in assay [1] (setting [4]), the pest or weed control at 100 ppm lay within 75 to 100%. For `COc1ccnc(C(=O)N[C@H]2COC(=O)[C@H](Cc3ccccc3)C[C@H](C)OC2=O)c1O` [Compound 382], the pest or weed control at 100 ppm in assay [1] (setting [3]) lay in the range of 75 to 100%. In the case of `COc1ccnc(C(=O)Nc2ccc(Oc3ccc(C)cc3)cc2)c1O` [Compound 417], the pest or weed control at 100 ppm in assay [1] (setting [3]) was 75 to 100%. As to `COc1ccnc(C(=O)N[C@H]2COC(=O)[C@H](Cc3ccccc3)[C@@H](OC(=O)OC(C)C)[C@H](C)OC2=O)c1O` [Compound 401], the pest or weed control at 100 ppm in assay [1] (setting [3]) is 75 to 100%. For `COc1ccnc(C(=O)N[C@H]2COC(=O)[C@H](Cc3ccccc3)[C@@H](OC(C)=O)[C@H](C)OC2=O)c1O` [Compound 385], the pest or weed control at 100 ppm in assay [1] (setting [3]) fell in the range of 75 to 100%.

`CC(C)C(=O)O[C@H]1[C@H](C)OC(=O)[C@@H](NC(=O)c2nccnc2O)COC(=O)[C@@H]1Cc1ccccc1` [Compound 534]: the pest or weed control at 100 ppm in assay [1] (setting [4]) was in the range of 75 to 100%. Turning to `C=C(C)C(=O)O[C@H]1[C@H](C)OC(=O)[C@@H](NC(=O)c2nccc(OC)c2O)COC(=O)[C@@H]1Cc1ccccc1` [Compound 386], in assay [1] (setting [3]), the pest or weed control at 100 ppm fell in the range of 75 to 100%. On to `COc1nc(O)c(C(=O)N[C@H]2COC(=O)[C@H](Cc3ccccc3)[C@@H](OC(=O)C(C)C)[C@H](C)OC2=O)nc1Cl` [Compound 537], for which, in assay [1] (setting [4]), the pest or weed control at 100 ppm was 75 to 100%. On to `Cc1nc(O)c(C(=O)N[C@H]2COC(=O)[C@H](Cc3ccccc3)[C@@H](OC(=O)C(C)C)[C@H](C)OC2=O)nc1C` [Compound 536], for which the pest or weed control at 100 ppm in assay [1] (setting [4]) fell in the range of 75 to 100%. On to `CC(C)C(=O)O[C@H]1[C@H](C)OC(=O)[C@@H](NC(=O)c2ccncc2O)COC(=O)[C@@H]1Cc1ccccc1` [Compound 513], for which, in assay [1] (setting [4]), the pest or weed control at 100 ppm was in the range of 75 to 100%. Turning to `COc1ccnc(C(=O)Nc2cccc(Oc3ccc(Cl)cc3)c2)c1O` [Compound 440], in assay [1] (setting [3]), the pest or weed control at 100 ppm fell in the range of 75 to 100%. Take `Cc1ccc(C(=O)N[C@H]2COC(=O)[C@H](Cc3ccccc3)[C@@H](OC(=O)C(C)C)[C@H](C)OC2=O)c(O)n1` [Compound 525]: the pest or weed control at 100 ppm in assay [1] (setting [4]) was 75 to 100%.

`COc1ccnc(C(=O)NC(C(=O)OCC(C)C)C(C)OC(=O)C(C)Cc2ccccc2)c1O` (centres unmarked) [Compound 360]: the pest or weed control at 100 ppm in assay [1] (setting [3]) was 75 to 100%. For `COc1ccnc(C(=O)NC2CC(C(F)(F)F)CC(C(F)(F)F)C2)c1O` (centres unmarked) [Compound 256], in assay [2], the “RHIZSO in vitro Growth Inhibition” value was “− (key: +: at least 80% growth inhibition; −: less than 80% growth inhibition)”. For the same compound, in the assay on Ustilago maydis (USTIMA), the “USTIMA in vitro Growth Inhibition” value was “− (key: +: at least 80% growth inhibition; −: less than 80% growth inhibition)”. On to `COc1ccnc(C(=O)NC2CCN(Cc3ccc(C)cc3)CC2)c1O` [Compound 306], for which the “RHIZSO in vitro Growth Inhibition” value in assay [2] is on record as “− (key: +: at least 80% growth inhibition; −: less than 80% growth inhibition)”. The “USTIMA in vitro Growth Inhibition” value in the assay on Ustilago maydis (USTIMA) is listed as “− (key: +: at least 80% growth inhibition; −: less than 80% growth inhibition)”. Regarding `COc1ccnc(C(=O)N[C@@H]2CCCC[C@H]2SC)c1O` [Compound 273], the “RHIZSO in vitro Growth Inhibition” value in assay [2] is given as “− (key: +: at least 80% growth inhibition; −: less than 80% growth inhibition)”. In addition, the “USTIMA in vitro Growth Inhibition” value with Ustilago maydis (USTIMA) was “− (key: +: at least 80% growth inhibition; −: less than 80% growth inhibition)”.

On to `COc1ccnc(C(=O)NC(C)c2ccc(C(F)(F)F)cc2)c1O` (centres unmarked) [Compound 247], for which, in assay [2], the “RHIZSO in vitro Growth Inhibition” value is listed as “− (key: +: at least 80% growth inhibition; −: less than 80% growth inhibition)”. The “USTIMA in vitro Growth Inhibition” value in the assay with Ustilago maydis (USTIMA) is listed as “− (key: +: at least 80% growth inhibition; −: less than 80% growth inhibition)”. `COc1ccnc(C(=O)N[C@H]2CC3OC2[C@H](C)[C@@H](OCc2ccccc2)[C@H]3C)c1O` (some centres unmarked) [Compound 321]: the “RHIZSO in vitro Growth Inhibition” value in assay [2] is listed as “− (key: +: at least 80% growth inhibition; −: less than 80% growth inhibition)”. Moreover, in the assay with Ustilago maydis (USTIMA), the “USTIMA in vitro Growth Inhibition” value is listed as “− (key: +: at least 80% growth inhibition; −: less than 80% growth inhibition)”. As for `COc1ccnc(C(=O)NC2CC(C)(C)CC(C)(C(=O)OCCC(C)(C)C)C2)c1O` (centres unmarked) [Compound 261], in assay [2], the “RHIZSO in vitro Growth Inhibition” value is “− (key: +: at least 80% growth inhibition; −: less than 80% growth inhibition)”. In addition, the “USTIMA in vitro Growth Inhibition” value with Ustilago maydis (USTIMA) is on record as “− (key: +: at least 80% growth inhibition; −: less than 80% growth inhibition)”. For the compound `COCCCc1ccc2c(c1)OC(C)C(NC(=O)c1nccc(OC)c1O)C2=O` (centres unmarked) [Compound 322], in assay [2], the “RHIZSO in vitro Growth Inhibition” value was “+ (key: +: at least 80% growth inhibition; −: less than 80% growth inhibition)”. For the same compound, the “USTIMA in vitro Growth Inhibition” value with Ustilago maydis (USTIMA) was “− (key: +: at least 80% growth inhibition; −: less than 80% growth inhibition)”. Regarding `COc1ccnc(C(=O)NC2CCN(C(=O)CCc3ccccc3)CC2)c1O` [Compound 309], the “RHIZSO in vitro Growth Inhibition” value in assay [2] is listed as “− (key: +: at least 80% growth inhibition; −: less than 80% growth inhibition)”. The “USTIMA in vitro Growth Inhibition” value in the assay on Ustilago maydis (USTIMA) is given as “− (key: +: at least 80% growth inhibition; −: less than 80% growth inhibition)”. Take `COc1ccnc(C(=O)N[C@H]2O[C@@H](C)[C@@H](OC(C)=O)[C@@H](OC(C)=O)[C@@H]2OC(C)=O)c1O` [Compound 333]: the “RHIZSO in vitro Growth Inhibition” value in assay [2] is on record as “− (key: +: at least 80% growth inhibition; −: less than 80% growth inhibition)”. For the same compound, the “USTIMA in vitro Growth Inhibition” value with Ustilago maydis (USTIMA) is recorded as “− (key: +: at least 80% growth inhibition; −: less than 80% growth inhibition)”.

`COc1ccnc(C(=O)NCC2C(C=C(C)C)C2(C)C)c1O` (centres unmarked) [Compound 241]: the “RHIZSO in vitro Growth Inhibition” value in assay [2] is on record as “+ (key: +: at least 80% growth inhibition; −: less than 80% growth inhibition)”. Also, the “USTIMA in vitro Growth Inhibition” value in the assay on Ustilago maydis (USTIMA) is listed as “− (key: +: at least 80% growth inhibition; −: less than 80% growth inhibition)”. Turning to `COc1ccnc(C(=O)NC2CC(c3ccco3)CC(C)(C)C2)c1O` (centres unmarked) [Compound 258], the “RHIZSO in vitro Growth Inhibition” value in assay [2] is “− (key: +: at least 80% growth inhibition; −: less than 80% growth inhibition)”. Moreover, the “USTIMA in vitro Growth Inhibition” value in the assay on Ustilago maydis (USTIMA) is on record as “− (key: +: at least 80% growth inhibition; −: less than 80% growth inhibition)”. In the case of `O=C(NCCCCc1ccccc1)c1ncccc1O` [Compound 234], the “RHIZSO in vitro Growth Inhibition” value in assay [2] is “− (key: +: at least 80% growth inhibition; −: less than 80% growth inhibition)”. The “USTIMA in vitro Growth Inhibition” value with Ustilago maydis (USTIMA) was “− (key: +: at least 80% growth inhibition; −: less than 80% growth inhibition)”. Take `COc1ccnc(C(=O)NC2CCC[C@H]3[C@H]4CC[C@H](C4)[C@@H]23)c1O` (some centres unmarked) [Compound 291]: the “RHIZSO in vitro Growth Inhibition” value in assay [2] is on record as “+ (key: +: at least 80% growth inhibition; −: less than 80% growth inhibition)”. Further, the “USTIMA in vitro Growth Inhibition” value in the assay on Ustilago maydis (USTIMA) is listed as “− (key: +: at least 80% growth inhibition; −: less than 80% growth inhibition)”.

The values are drawn from patent US7034035B2, “Fungicidal mono-, bi-, and tri-cycloheteroalkyl amides and their compositions, methods of use and preparation” (priority 1999, dated 2006).
